According to paper PMC12567244, “Innovative Amino-Functionalization of Pyrido[2,3-d]pyrimidine Scaffolds for Broad Therapeutic Applications Supported by Computational Analyses” (Pharmaceuticals, 2025):
Converted amounts (≈) assume the structure as drawn. “And” between values parts separate entries of the source, which are not always exact repeats. Equal entries are not always repeated. Where two headings read alike, the source gives them in different places.

Key:
breast carcinoma (MCF-7) = assay: MTT cytotoxicity assay, MCF-7; conditions: for SI MCF-7: IC50 WI-38 / IC50 MCF-7; for IC50: read-out: IC50 MCF-7, MTT, mean ± SD of three measurements
liver carcinoma (HepG-2) = assay: MTT cytotoxicity assay, HepG-2; conditions: for SI HepG-2: IC50 WI-38 / IC50 HepG-2; for IC50: read-out: IC50 HepG-2, MTT, mean ± SD of three measurements
[1] = system: cervical carcinoma (HeLa); assay: MTT cytotoxicity assay, HeLa; conditions: for SI HeLa: IC50 WI-38 / IC50 HeLa; for IC50: read-out: IC50 HeLa, MTT, mean ± SD of three measurements
EGFRT790M [2] = biological target: T1, EGFRT790M (Homo sapiens, UniProt P00533, T790M); assay: biochemical
T1 sequence (P00533 25-1210 T790M): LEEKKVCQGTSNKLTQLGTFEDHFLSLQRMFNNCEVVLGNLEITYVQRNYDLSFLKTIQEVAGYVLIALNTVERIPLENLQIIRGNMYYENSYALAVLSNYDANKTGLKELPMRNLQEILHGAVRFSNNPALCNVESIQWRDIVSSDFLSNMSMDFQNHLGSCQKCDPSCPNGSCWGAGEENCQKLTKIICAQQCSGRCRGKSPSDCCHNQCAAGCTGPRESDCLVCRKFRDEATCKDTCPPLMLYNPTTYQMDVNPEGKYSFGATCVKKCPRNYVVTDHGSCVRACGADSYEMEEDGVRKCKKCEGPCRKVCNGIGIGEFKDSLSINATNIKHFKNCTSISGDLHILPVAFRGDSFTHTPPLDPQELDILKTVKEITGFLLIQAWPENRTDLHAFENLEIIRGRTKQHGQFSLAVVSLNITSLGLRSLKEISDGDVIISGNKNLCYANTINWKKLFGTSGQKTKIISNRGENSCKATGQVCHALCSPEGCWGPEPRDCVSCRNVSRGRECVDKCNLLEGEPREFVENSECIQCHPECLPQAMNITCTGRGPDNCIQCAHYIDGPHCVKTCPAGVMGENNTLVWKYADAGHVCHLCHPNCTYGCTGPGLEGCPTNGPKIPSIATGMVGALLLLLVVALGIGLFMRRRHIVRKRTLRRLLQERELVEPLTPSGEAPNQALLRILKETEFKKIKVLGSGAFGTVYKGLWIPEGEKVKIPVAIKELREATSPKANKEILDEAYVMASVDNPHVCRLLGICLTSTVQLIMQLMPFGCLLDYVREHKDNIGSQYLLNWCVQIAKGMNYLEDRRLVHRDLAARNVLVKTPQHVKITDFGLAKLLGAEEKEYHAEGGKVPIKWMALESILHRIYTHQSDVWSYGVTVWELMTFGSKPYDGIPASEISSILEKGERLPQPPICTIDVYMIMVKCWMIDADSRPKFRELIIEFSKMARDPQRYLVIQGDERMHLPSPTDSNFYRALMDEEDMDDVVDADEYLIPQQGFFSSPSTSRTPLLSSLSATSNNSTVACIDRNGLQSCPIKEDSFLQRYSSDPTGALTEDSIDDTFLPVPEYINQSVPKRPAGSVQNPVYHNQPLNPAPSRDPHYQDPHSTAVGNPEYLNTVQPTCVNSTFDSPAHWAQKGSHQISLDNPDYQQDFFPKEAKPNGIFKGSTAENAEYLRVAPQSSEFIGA

mutant EGFRL858R [3] = biological target: T2, mutant EGFRL858R (Homo sapiens, UniProt P00533, L858R)
T2 sequence (P00533 25-1210 L858R): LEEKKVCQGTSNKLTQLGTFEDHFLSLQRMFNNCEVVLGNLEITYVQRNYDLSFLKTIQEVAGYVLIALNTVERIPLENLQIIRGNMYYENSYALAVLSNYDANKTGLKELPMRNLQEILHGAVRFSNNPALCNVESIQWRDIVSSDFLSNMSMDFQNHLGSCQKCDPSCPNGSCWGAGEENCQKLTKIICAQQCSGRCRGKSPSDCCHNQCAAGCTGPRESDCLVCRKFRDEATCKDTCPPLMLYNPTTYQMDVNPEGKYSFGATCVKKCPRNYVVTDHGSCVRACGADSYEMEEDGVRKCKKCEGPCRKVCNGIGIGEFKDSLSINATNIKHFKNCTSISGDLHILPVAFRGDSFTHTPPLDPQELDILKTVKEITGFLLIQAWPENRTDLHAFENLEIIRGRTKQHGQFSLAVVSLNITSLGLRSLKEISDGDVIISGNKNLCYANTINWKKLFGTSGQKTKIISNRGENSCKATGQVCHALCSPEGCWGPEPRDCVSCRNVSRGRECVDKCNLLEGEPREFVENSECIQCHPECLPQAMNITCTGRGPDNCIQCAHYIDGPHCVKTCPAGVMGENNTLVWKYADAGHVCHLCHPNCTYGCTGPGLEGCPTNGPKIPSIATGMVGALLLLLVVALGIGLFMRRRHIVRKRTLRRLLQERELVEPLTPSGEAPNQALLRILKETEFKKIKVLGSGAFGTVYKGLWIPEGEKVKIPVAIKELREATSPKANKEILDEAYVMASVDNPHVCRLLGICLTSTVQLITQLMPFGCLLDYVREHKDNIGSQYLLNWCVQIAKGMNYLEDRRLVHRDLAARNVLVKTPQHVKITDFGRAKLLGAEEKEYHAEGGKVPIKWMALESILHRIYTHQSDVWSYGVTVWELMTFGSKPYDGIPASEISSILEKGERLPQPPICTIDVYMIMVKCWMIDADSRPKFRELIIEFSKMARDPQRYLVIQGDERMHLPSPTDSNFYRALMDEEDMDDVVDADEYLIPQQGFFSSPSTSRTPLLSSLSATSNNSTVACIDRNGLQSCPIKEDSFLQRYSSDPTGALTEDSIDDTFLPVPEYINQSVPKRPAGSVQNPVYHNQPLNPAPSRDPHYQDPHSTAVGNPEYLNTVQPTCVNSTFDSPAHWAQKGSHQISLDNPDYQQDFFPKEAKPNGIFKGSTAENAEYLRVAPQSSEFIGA

EGFRT790M [4] = biological target: T1, EGFRT790M; conditions: potency relative to wild-type EGFR
in vitro = conditions: human, WI-38 normal lung fibroblast cells
HeLa, HepG-2, and MCF-7 = assay: MTT cytotoxicity, range over the cancer cell panel; conditions: read-out: IC50 across HeLa, HepG-2 and MCF-7; range over all examined cancer cell lines
mutant EGFRL858R [5] = biological target: T2, mutant EGFRL858R; assay: biochemical
EGFRWT = EGFRWT (Homo sapiens, UniProt P00533); assay: HTRF enzyme inhibitory assay, EGFR WT
EGFRWT, sequence (P00533 25-1210): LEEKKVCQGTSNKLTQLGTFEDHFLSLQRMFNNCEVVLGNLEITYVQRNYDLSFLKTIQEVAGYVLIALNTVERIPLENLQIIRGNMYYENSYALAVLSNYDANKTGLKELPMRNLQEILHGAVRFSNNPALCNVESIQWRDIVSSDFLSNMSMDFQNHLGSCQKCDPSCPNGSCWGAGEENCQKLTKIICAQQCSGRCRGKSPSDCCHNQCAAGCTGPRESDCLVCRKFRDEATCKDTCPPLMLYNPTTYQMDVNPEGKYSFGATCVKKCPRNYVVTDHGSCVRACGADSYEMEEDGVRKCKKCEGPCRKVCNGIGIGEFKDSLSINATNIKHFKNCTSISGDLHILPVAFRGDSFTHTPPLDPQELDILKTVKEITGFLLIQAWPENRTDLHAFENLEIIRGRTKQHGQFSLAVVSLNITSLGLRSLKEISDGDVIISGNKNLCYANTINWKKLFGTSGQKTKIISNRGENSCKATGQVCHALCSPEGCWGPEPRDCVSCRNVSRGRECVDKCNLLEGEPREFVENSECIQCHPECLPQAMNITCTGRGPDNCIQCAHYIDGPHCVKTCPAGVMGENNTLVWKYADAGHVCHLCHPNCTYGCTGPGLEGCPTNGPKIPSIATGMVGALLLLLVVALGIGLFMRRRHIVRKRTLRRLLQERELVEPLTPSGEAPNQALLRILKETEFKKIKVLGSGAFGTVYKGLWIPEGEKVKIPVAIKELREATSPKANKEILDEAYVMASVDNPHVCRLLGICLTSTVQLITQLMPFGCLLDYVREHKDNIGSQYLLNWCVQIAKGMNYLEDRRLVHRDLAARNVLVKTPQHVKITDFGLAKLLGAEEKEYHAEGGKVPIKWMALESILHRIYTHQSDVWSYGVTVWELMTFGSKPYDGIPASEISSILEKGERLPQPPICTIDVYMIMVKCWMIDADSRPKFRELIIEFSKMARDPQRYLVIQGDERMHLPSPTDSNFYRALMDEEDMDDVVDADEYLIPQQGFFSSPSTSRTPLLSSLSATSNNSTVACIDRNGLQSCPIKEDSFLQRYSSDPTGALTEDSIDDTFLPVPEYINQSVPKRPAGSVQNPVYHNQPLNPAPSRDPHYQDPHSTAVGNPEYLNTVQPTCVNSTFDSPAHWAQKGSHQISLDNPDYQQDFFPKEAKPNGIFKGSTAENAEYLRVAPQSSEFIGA

E.coli ATCC25915 = assay: Well diffusion inhibition zone, E. coli; conditions: Escherichia coli, ATCC25915, read-out: Inhibition zone E.coli ATCC25915
S. aureus ATCC25923 [6] = assay: Well diffusion inhibition zone, S. aureus; conditions: Staphylococcus aureus, ATCC25923, read-out: Inhibition zone S. aureus ATCC25923
P. aeruginosa ATCC10145 = assay: Well diffusion inhibition zone, P. aeruginosa; conditions: Pseudomonas aeruginosa, ATCC10145, read-out: Inhibition zone P. aeruginosa ATCC10145
E. faecalis ATCC29212 [7] = assay: Well diffusion inhibition zone, E. faecalis; conditions: Enterococcus faecalis, ATCC29212, read-out: Inhibition zone E. faecalis ATCC29212
E. faecalis ATCC29212 [8] = assay: MIC, two-fold serial dilution, E. faecalis; format: cell-based, Enterococcus faecalis; conditions: Enterococcus faecalis, ATCC29212
S. aureus ATCC25923 [9] = assay: MIC, two-fold serial dilution, S. aureus; format: cell-based, Staphylococcus aureus; conditions: Staphylococcus aureus, ATCC25923
E. coli ATCC25915 = assay: MIC, two-fold serial dilution, E. coli; format: cell-based; conditions: Escherichia coli

SMILES | SI MCF-7 (breast carcinoma (MCF-7)) | IC50 (breast carcinoma (MCF-7)) [µM] | SI HepG-2 (liver carcinoma (HepG-2)) | IC50 (liver carcinoma (HepG-2)) [µM] | SI HeLa [1] | IC50 [1] [µM] | IC50 at 48 h (in vitro) [µM] | IC50 (HeLa, HepG-2, and MCF-7) | zone of inhibition at 100 µg/mL (E.coli ATCC25915) [mm] | zone of inhibition at 100 µg/mL (S. aureus ATCC25923 [6]) [mm] | zone of inhibition at 100 µg/mL (P. aeruginosa ATCC10145) [mm] | other results
Cn1c(=O)c2c(-c3ccc(Cl)cc3)c(C(=O)NN)c(N)nc2n(C)c1=O [Compound 2, 7-Amino-5-(4-chlorophenyl)-1,3-dimethyl-2,4-dioxo-1,2,3,4-tetrahydropyrido[2,3-d]pyrimidine 6-carbohydrazide] | 7.44 | 8.61 ± 0.6 | 4.95 | 12.9 ± 1 | 8.6 | 7.54 ± 0.7 | 64.1 ± 3.5 | 7.54 to 12.9 µM |  |  |  | IC50 (EGFRT790M [2]): 0.854 ± 0.027 µM; %inh EGFR_L858R (mutant EGFRL858R [3]; conc 0.01): 6.07%; %inh EGFR_L858R (mutant EGFRL858R [3]; conc 0.1): 19%; %inh EGFR_L858R (mutant EGFRL858R [3]; conc 1): 43.5%; %inh EGFR_L858R (mutant EGFRL858R [3]; conc 10): 68.3%; %inh EGFR_L858R (mutant EGFRL858R [3]; conc 100): 90.7%; Fold-Change L858R/WT (mutant EGFRL858R [3]; potency relative to wild-type EGFR): 7.5 × and 7.56×; Fold-Change T790M/WT (EGFRT790M [4]): 4.03×; IC50 (mutant EGFRL858R [5]): 1.6 ± 0.05 µM; IC50 (EGFRWT): 0.212 ± 0.007 µM; %inh EGFR WT (EGFRWT; conc 0.01): 24.6%; %inh EGFR WT (EGFRWT; conc 0.1): 42.5%; %inh EGFR WT (EGFRWT; conc 1): 67.1%; %inh EGFR WT (EGFRWT; conc 10): 81.4%; %inh EGFR WT (EGFRWT; conc 100): 94.6%
Cn1c(=O)c2c(-c3ccc(Cl)cc3)c(-c3nnc4n3N=C(Cl)CS4)c(N)nc2n(C)c1=O [Compound 14, 7-Amino-6-(6-chloro-7H-[1,2,4]triazolo [3,4-b][1,3,4]thiadiazin-3-yl)-5-(4-chlorophenyl)-1,3-dimethylpyrido[2,3-d]pyrimidine-2,4(1H,3H)-dione] | 0.29 | 75.1 ± 3.8 | 0.23 | 93.7 ± 4.8 | 0.32 | 68.7 ± 3.6 | 22.5 ± 1.6 | > 50 µM and 69 to 94 µM | 8.15 ± 0.3 | 3 ± 0.05 | 9.5 | 
O=C(O)c1cn(C2CC2)c2cc(N3CCNCC3)c(F)cc2c1=O [Ciprofloxacin, reference compound] |  |  |  |  |  |  |  |  |  |  |  | zone of inhibition at 50 µg/mL (E. faecalis ATCC29212 [7]): 7.5 mm; zone of inhibition at 50 µg/mL (E.coli ATCC25915): 10 mm; zone of inhibition at 50 µg/mL (S. aureus ATCC25923 [6]): 8 ± 0.15 mm; zone of inhibition at 50 µg/mL (P. aeruginosa ATCC10145): 12.3 ± 0.4 mm
Cn1c(=O)c2c(-c3ccc(Cl)cc3)c(C3=NN=C4N=CNC(=O)C43)c(N)nc2n(C)c1=O (stereo not drawn) [Compound 11, 7-Amino-5-(4-chlorophenyl)-1,3-dimethyl-6-(4-oxo-3a,5-dihydro-4H-pyrazolo [3,4-d]pyrimidin-3-yl)pyrido[2,3-d]pyrimidine-2,4(1H,3H)-dione] |  | 60.6 ± 3.5 |  | 73.2 ± 3.8 |  | 56.4 ± 3.2 | > 100 | > 50 µM | 2 ± 0.1 |  | 8.6 | 
CC1=NN(C(=S)NC(=O)c2c(N)nc3c(c2-c2ccc(Cl)cc2)c(=O)n(C)c(=O)n3C)C(=O)C1 [Compound 16, 7-Amino-5-(4-chlorophenyl)-1,3-dimethyl-N-(3-methyl-5-oxo-4,5-dihydro-1H-pyrazole-1-carbonothioyl)-2,4-dioxo-1,2,3,4-tetrahydropyrido[2,3-d]pyrimidine-6-carboxamide] | 1.34 | 42.9 ± 2.5 | 0.88 | 65.1 ± 3.4 | 1.65 | 34.8 ± 2.1 | 57.6 ± 3.2 | 35 to 65 µM | 18.5 ± 0.15 | 4.5 ± 0.1 | 17.6 | zone of inhibition at 100 µg/mL (E. faecalis ATCC29212 [7]): 4 ± 0.6 mm; MIC (E. faecalis ATCC29212 [8]): 100 µg/mL (≈ 200 µM); MIC (S. aureus ATCC25923 [9]): 100 µg/mL (≈ 200 µM); MIC (E. coli ATCC25915): 50 µg/mL (≈ 100 µM)
